# Experimental data published in patent US7094754B2, “Anti-aging and wound healing compounds” (Kimberly-Clark Worldwide, Inc., priority 2001, dated 2006).
# Columns and labels:
# [1] = system: wounds in C57BL6/KsJ db/db mice; test: Wound healing in db/db diabetic mice; assay type: in vivo
# Source text: Wounds were created in C57BL6/KsJ db/db mice with a 4 mm biopsy punch. The mice were obtained from The Jackson Laboratories and were aged 3-7 months before the onset of the wounding protocol. All mice were anesthetized prior to wounding. Two wounds were introduced onto the upper back of each animal by pulling the skin away from underlying structures and pushing the punch through the isolated skin. Typically, wounds were created to an average depth of 1.7 mm, with a range of 1.3 to 2.2 mm. No muscle involvement occurred during the course of wounding.
# Each day the wounds were digitally photographed and wound areas were determined by computer integration of the photographs. All wound treatments and the subsequent data analyses were performed in a blind manner (see e.g., Brown et al., 1994). Wound area at the time of wounding (day 0) is arbitrarily set to a relative value of 1 for all wounds; such that subsequent wound areas are converted to relative wound areas by dividing the wound area at day n by the wound area at day zero.
# [2] = system: neutrophils isolated from human blood; test: Neutrophil migration assay (transwell); assay type: cell-based; settings: HSA 0.4%
# Method: Peptides were synthesized and purified by the Microchemical Facility at Emory University or by SigmaGenesis. All peptides were analyzed by mass spectrometry after HPLC to assess purity. Approximately 0.5–2.0 milligrams of peptide were used to make fresh stock solutions (5 mg/mL in HBSS/HSA) for each migration assay. The peptide stock solutions were used to make more dilute solutions (1 mg/mL, 100 μg/mL, 10 μg/mL, 1 μg/mL, 100 ng/mL, and 10 ng/mL) in HBSS/HSA for the assays.
# Neutrophils were isolated from human blood (collected in Vacutainerm tubes containing EDTA) by layering the blood/EDTA mixture (about 20 mL) on top of two layers of Histopaque™ 1119 (bottom layer, 18 mL) and 1077 (top layer, 7 mL) in 50 mL Falcon tubes. The tubes were centrifuged at 1800 rpm for 30 minutes (no brake). Four layers appeared in the tubes after the spin (from top to bottom layers): plasma, 1077, 1119, and red blood cells. The buffy coat between the plasma and 1077 layers contained lymphocytes, monocytes, and some platelets. The plasma layer, the buffy coat, and most of the 1077 layer was removed and discarded. The 1119 layer that contained the neutrophils was removed and was placed into a clean 50 mL tube. Dulbecco's Phosphate Buffered Saline (DPBS) was added to bring the volume to 50 mL. The cells were centrifuged for 15 minutes at 2100 rpm. The cells were resuspended in 10 mL of DPBS, transferred to 15 mL tubes, and centrifuged again for 10 minutes at 2000 rpm. This process was repeated to wash the cells a second time. After the supernatant was removed, the red blood cells were lysed by adding 6 mL of cold sterile water to each 15 mL of supernatant. Cells were mixed in the water for only 30 seconds. Six mL of cold 2% sterile saline was then added. Cells were centrifuged again for 10 minutes at 2000 rpm. The red supernatant (containing hemoglobin from red blood cells) was removed. This process of red blood cell lysis was repeated two more times to remove all of the red blood cells. After most of the red blood cells were removed, neutrophils were resuspended in 10 mL of HBSS/HSA for counting with trypan blue.
# A neutrophil migration assay was performed in duplicate using a 24-well transwell plate (3 μm pore size for membrane). Transwell membranes were pre-moistened with 20–40 μL of HBSS/HSA (0.04–0.4%). Chemotactic solutions (500 μL) were added to the bottom of each well. […] Transwells were then placed into the chemotactic solutions. The plate was placed into the incubator (37° C., 5% CO2) for one hour. Cells that migrated through the membrane were counted using trypan blue.
# In the neutrophil migration experiments, neutrophils that were isolated were approximately 95% viable. Neutrophils were resuspended in HBSS/0.4%HSA for this experiment. IL-8 (10 nM in the HBSS/0.4%HSA buffer) was used as a positive control for neutrophil migration.
smiles,measurement,setting,value
CC(C)[C@H](NC(=O)[C@H](CC(=O)O)NC(=O)[C@@H]1CCCN1C(=O)[C@H](CC(N)=O)NC(=O)CNC(=O)[C@H](CS)NC(=O)[C@H](CCCNC(=N)N)NC(=O)[C@@H]1CCCN1)C(=O)N[C@@H](C)C(=O)N[C@@H](CC(N)=O)C(=O)N[C@@H](Cc1ccc(O)cc1)C(=O)N[C@@H](CC(N)=O)C(=O)N[C@@H](Cc1ccccc1)C(=O)N[C@@H](Cc1ccccc1)C(=O)N1CCC[C@H]1C(=O)N[C@@H](CCCNC(=N)N)C(=O)N[C@@H](CCCCN)C(=O)N1CCC[C@H]1C(=O)N[C@@H](CCCCN)C(=O)O [19-mer],time to full wound closure (average),"[1]; single dose 5 μL of 20 μg/mL at time of wounding, saline control 14 days",9 days post wounding
same,start of wound contraction process,"[1]; single dose 5 μL of 20 μg/mL, saline control day 8",5 days
same,Percent Neutrophil Migration exp.1,[2]; 1 μg/mL,32%
same,Percent Neutrophil Migration exp.1,[2]; 10 μg/mL,22%
same,Percent Neutrophil Migration exp.1,[2]; 100 μg/mL,29%
same,Percent Neutrophil Migration exp.1,"[2]; 1 mg/mL, one hour",23%
